Legend:
[1] = Stability test in presence of protein: calcium salt added to milk, heat treatment; type: physicochemical; details: 600 ppm calcium added
[2] = Stability test in presence of protein: calcium salt added to soy milk, heat treatment; type: physicochemical; details: 600 ppm calcium added

Row | Structure (SMILES) | protein stability (coagulation) of the fortified milk after heat treatment [1] | protein stability (coagulation / viscosity) of the fortified soy milk after heat treatment [2]
1 | CC(O)C(=O)O.O=C(O)[C@H](O)[C@@H](O)[C@H](O)[C@H](O)CO.O=C([O-])CC(O)(CC(=O)[O-])C(=O)O.[Ca+2] [calcium lactate gluconate citrate] | coaglulated a little to become a quark like substance | somewhat increased viscosity after heat treatment, but was still pourable
2 | CC(O)C(=O)[O-].O=C([O-])[C@H](O)[C@@H](O)[C@H](O)[C@H](O)CO.[Ca+2] [calcium lactate gluconate] | completely coagulated to a firm substance | completely coagulated to a firm substance

From patent publication US20050153021A1, “Calcium-fortified protein-based beverage containing calcium (lactate) gluconate citrate” (PURAC BIOCHEM BV, priority 2003, published 2005)
